Literature values as cited in patent US20240108043A1, “NONNUTRITIVE SWEETENER COMPOSITIONS, METHODS OF MANUFACTURE AND USES THEREOF” (priority 2022, published 2024).
Where two headings read alike, the source gives them in different places.

Assays:
[1] = in vivo
[2] = diabetic human subjects, daily 20 g for 14 days
[3] = for Sweetness intensity relative to sucrose: times the sweetness intensity of sucrose
[4] = tested on: TNF-Alpha and Interleukin 1-Beta; conditions: concentration of 1 mM
[5] = not given; remark: listed apart in the source
[6] = 500 mg, two years, mild hypertension patients

OC[C@@H](O)[C@@H](O)CO [erythritol, (2R,3S)-Butan-1,2,3,4-tetrol]
Excreted through urine with molecular structure unchanged [1]: Approximately 90%
Effect on blood glucose insulin [2]: no effect
Sweetness, as sweet as sucrose ([3]; percent of sucrose sweetness): 60-70%
Sweetness intensity relative to sucrose [3]: 0.6-0.7 times

O=C(CO)[C@H](O)[C@H](O)[C@H](O)CO [allulose, D-ribo-2-hexulose]
Sweetness intensity relative to sucrose [3]: approximately 0.7 times

OC[C@@H](O)[C@@H](O)[C@H](O)[C@@H](O)CO [sorbitol]
Dose at which laxative affect is seen (men): 170 mg/kg
Dose at which laxative affect is seen (women): 240 mg/kg

C=C1C[C@@]23CC[C@H]4[C@@](C)(CCC[C@@]4(C)C(=O)O[C@@H]4O[C@H](CO)[C@@H](O)[C@H](O)[C@H]4O)[C@@H]2CC[C@]1(O[C@@H]1O[C@H](CO)[C@@H](O)[C@H](O)[C@H]1O[C@@H]1O[C@H](CO)[C@@H](O)[C@H](O)[C@H]1O)C3 [stevioside]
Endotoxin release of TNF-Alpha and Interleukin 1-Beta [4]: significantly suppressed
Blood glucose ([5]; 200 mg, sixty healthy volunteers): effectively reduce blood glucose
Postprandial blood glucose levels ([5]; 1 gram vs 1 gram maize starch, type-2 diabetes patients, 30 and 240 minutes after a meal): reduced postprandial blood glucose levels
Diastolic and systolic blood pressure [6]: significantly reduced

OC[C@@H](O)[C@@H](O[C@@H]1O[C@H](CO)[C@H](O)[C@H](O)[C@H]1O)[C@H](O)[C@@H](O)CO [lactitol]
Incidence of gastrointestinal distress compared to equal doses of sucrose (doses of 30-40 grams): significantly (p<0.01) increased

C=C1C[C@@]23CC[C@H]4[C@@](C)(CCC[C@@]4(C)C(=O)O)[C@@H]2CC[C@]1(O)C3 [steviol]
Endotoxin release of TNF-Alpha and Interleukin 1-Beta [4]: significantly suppressed

OC[C@@H](O)[C@@H](O)[C@H](O)[C@H](O)CO [mannitol]
Dose causing laxative affects (single bolus): greater than 20 grams

O=C(CO)[C@@H](O)[C@H](O)[C@H](O)CO [fructose, D-Fructose]
Sweetness intensity relative to sucrose [3]: approximately 1.7 times
